Measured values reported in ChEMBL document CHEMBL3826972, “Spirostanol saponins from Tacca vietnamensis and their anti-inflammatory activity” (Bioorg Med Chem Lett, 2016).
pIC50: −log10 of the molar value. Activity calls are given as the source filed them. The rule behind the calls is not given here.

What was measured:
[1] = test system: BV-2; experiment: Inhibition of LPS-induced NO production in mouse BV2 cells at 80 uM by Griess assay; format: functional
[2] = test system: BV-2; experiment: Inhibition of LPS-induced NO production in mouse BV2 cells by Griess assay; format: functional, cell-based
[3] = test system: RAW264.7; experiment: Inhibition of LPS-induced NO production in mouse RAW264.7 cells by Griess assay; format: functional, cell-based
[4] = test system: RAW264.7; experiment: Inhibition of LPS-induced NO production in mouse RAW264.7 cells at 80 uM by Griess assay; format: functional
[5] = Cytotoxicity against mouse RAW264.7 cells assessed as cell viability at 80 uM; format: cell-based; conditions: read-out: Activity
[6] = Cytotoxicity against mouse BV2 cells assessed as cell viability at 80 uM; format: cell-based, BV-2; conditions: read-out: Activity

Compound | inhibition at 80 µM [1] [%] | pIC50 [2] | pIC50 [3] | inhibition at 80 µM [4] [%] | viability at 80 µM [5] [%] | viability at 80 µM [6] [%] | inhibition [1] | inhibition [4]
C[C@@H]1COC2(C[C@@H]1O)O[C@H]1C[C@H]3[C@@H]4CC=C5C[C@@H](O[C@@H]6O[C@H](CO)[C@@H](O)[C@H](O[C@@H]7O[C@@H](C)[C@H](O)[C@@H](O)[C@H]7O)[C@H]6O[C@@H]6O[C@@H](C)[C@H](O)[C@@H](O)[C@H]6O)CC[C@]5(C)[C@H]4CC[C@]3(C)[C@H]1[C@@H]2C (single isomer, unassigned) | < 50 | < 4.10 | < 4.10 | < 50 |  |  |  | 
O=C(/C=C/c1ccc(O)c(O)c1)c1ccc(O)cc1O [BUTEIN] |  | 5.37 | 5.28 |  |  |  |  | 
C[C@H]1CC[C@@]2(OC1)O[C@@H]1C[C@@H]3[C@H]4CC=C5C[C@H](O[C@H]6O[C@@H](CO)[C@H](O)[C@@H](O[C@H]7O[C@H](C)[C@@H](O[C@@H]8O[C@H](CO)[C@@H](O)[C@H](O)[C@H]8O)[C@H](O)[C@@H]7O)[C@@H]6O[C@H]6O[C@H](C)[C@@H](O)[C@H](O)[C@@H]6O)CC[C@@]5(C)[C@@H]4CC[C@@]3(C)[C@@H]1[C@H]2C |  |  |  |  | < 50 | < 50 |  | 
C[C@@H]1CO[C@]2(O[C@H]3C[C@@H]4[C@@H]5CC=C6C[C@@H](O[C@@H]7O[C@H](CO)[C@@H](O)[C@H](O[C@@H]8O[C@@H](C)[C@H](O)[C@@H](O)[C@H]8O)[C@H]7O[C@@H]7O[C@@H](C)[C@H](O)[C@@H](O)[C@H]7O)CC[C@]6(C)[C@H]5CC[C@]4(C)[C@H]3[C@@H]2C)[C@@H](O)[C@@H]1O (stereo in doubt) |  | 4.28 | 4.22 |  |  |  | Active | Active
C[C@@H]1CO[C@]2(C[C@@H]1O)O[C@@H]1C[C@@H]3[C@H]4CC=C5C[C@H](O[C@@H]6O[C@H](CO)[C@@H](O)[C@H](O[C@@H]7O[C@@H](C)[C@H](O[C@@H]8O[C@H](CO)[C@@H](O)[C@H](O)[C@H]8O)[C@@H](O)[C@H]7O)[C@H]6O[C@@H]6O[C@@H](C)[C@H](O)[C@@H](O)[C@H]6O)CC[C@@]5(C)[C@@H]4CC[C@@]3(C)[C@@H]1[C@H]2C (stereo in doubt) | < 50 | < 4.10 | < 4.10 | < 50 |  |  |  | 
C[C@@H]1CO[C@@]2(O[C@@H]3C[C@@H]4[C@H]5CC=C6C[C@H](O[C@@H]7O[C@H](CO)[C@@H](O)[C@H](O[C@@H]8O[C@@H](C)[C@H](O[C@@H]9O[C@H](CO)[C@@H](O)[C@H](O)[C@H]9O)[C@@H](O)[C@H]8O)[C@H]7O[C@@H]7O[C@@H](C)[C@H](O)[C@@H](O)[C@H]7O)CC[C@@]6(C)[C@@H]5CC[C@@]4(C)[C@@H]3[C@H]2C)[C@H](O)[C@@H]1O (stereo in doubt) |  | 4.33 | 4.24 |  |  |  | Active | Active
C[C@@H]1CO[C@@]2(O[C@@H]3C[C@@H]4[C@H]5CC=C6C[C@H](O[C@@H]7O[C@H](CO)[C@@H](O)[C@H](O[C@@H]8O[C@@H](C)[C@H](O[C@@H]9O[C@H](CO)[C@@H](O)[C@H](O)[C@H]9O)[C@@H](O)[C@H]8O)[C@H]7O[C@@H]7O[C@@H](C)[C@H](O)[C@@H](O)[C@H]7O)CC[C@@]6(C)[C@@H]5CC[C@@]4(C)[C@@H]3[C@H]2C)[C@H](O)C1 (stereo in doubt) |  | 4.36 | 4.43 |  |  |  | Active | Active
C[C@@H]1O[C@@H](O[C@H]2[C@H](O[C@@H]3CC[C@]4(C)C(=CC[C@@H]5[C@H]6C[C@H]7O[C@@]8(OC[C@](C)(O)C[C@H]8O)[C@H](C)[C@H]7[C@]6(C)CC[C@H]54)C3)O[C@H](CO)[C@@H](O)[C@@H]2O[C@@H]2O[C@@H](C)[C@H](O[C@@H]3O[C@H](CO)[C@@H](O)[C@H](O)[C@H]3O)[C@@H](O)[C@H]2O)[C@H](O)[C@H](O)[C@H]1O (stereo in doubt) | < 50 | < 4.10 | < 4.10 | < 50 |  |  |  | 
C[C@@H]1O[C@@H](O[C@H]2[C@H](O[C@H]3CC[C@@]4(C)C(=CC[C@H]5[C@@H]6C[C@@H]7OC8(OC[C@](C)(O)C[C@@H]8O)[C@@H](C)[C@@H]7[C@@]6(C)CC[C@@H]54)C3)O[C@H](CO)[C@@H](O)[C@@H]2O[C@@H]2O[C@@H](C)[C@H](O)[C@@H](O)[C@H]2O)[C@H](O)[C@H](O)[C@H]1O (single isomer, unassigned) | < 50 | < 4.10 | < 4.10 | < 50 |  |  |  | 
